IC50 data for 10 compounds are collected here from ChEMBL document CHEMBL1132927, “New proline mimetics: synthesis of thrombin inhibitors incorporating cyclopentane- and cyclopentenedicarboxylic acid templates in the P2 position. Binding conformation investigated by X-ray crystallography” (J Med Chem, 2000).

For this test, the target named is Prothrombin (Homo sapiens, UniProt P00734). Briefly: In vitro for the inhibition of thrombin.

SMILES strings stand for the structures. A value given as a limit tells only on which side of the number the result lay.

The compound `CCN(C(=O)C1=CCC[C@H]1C(=O)NCc1ccc(C(=N)N)cc1)c1ccccc1` displayed an IC50 of 0.98 µM. `N=C(N)c1ccc(CNC(=O)[C@@H]2CCC=C2C(=O)NCC2CCCCC2)cc1`: the half-inhibitory concentration (IC50) was determined as 9.33 µM.

The compound `COC(=O)[C@H](NC(=O)[C@@H]1CCC[C@H]1C(=O)NCc1ccc(C(=N)N)cc1)c1ccccc1` had a half-inhibitory concentration (IC50) of 20.4 µM. This IC50 is about 2.2-fold higher than that of the compound before.

`N=C(N)c1ccc(CNC(=O)[C@@H]2CCC=C2C(=O)N2CCCCC2)cc1`: inhibition was half-maximal at 6.03 µM (IC50). This IC50 lies about 3.4-fold lower than the previous one. `N=C(N)c1ccc(CNC(=O)[C@@H]2CCC[C@H]2C(=O)NC2CCCCC2)cc1` displayed an IC50 of 1.32 µM. `N=C(N)c1ccc(CNC(=O)[C@@H]2CCC[C@H]2C(=O)N[C@@H](C(=O)O)c2ccccc2)cc1`: the 50% inhibitory concentration (IC50) was > 132 µM. The compound `CCON(C(=O)C1=CCC[C@H]1C(=O)NCc1ccc(C(=N)N)cc1)C1CCCCC1` showed a 50% inhibitory concentration (IC50) of 0.87 µM. On to `N=C(N)c1ccc(CNC(=O)[C@H]2CCC[C@@H]2C(=O)NCc2ccccc2)cc1`, for which the concentration for half-maximal inhibition (IC50) was > 132 µM.

With `N=C(N)c1ccc(CNC(=O)[C@@H]2CCC[C@H]2C(=O)NCc2ccccc2)cc1`, the IC50 stood at 44.7 µM. This lies in the double-digit micromolar range. For the compound `N=C(N)c1ccc(CNC(=O)[C@@H]2CCC=C2C(=O)NC2CCCCC2)cc1`, 1.51 µM corresponded to half-maximal inhibition (IC50).

As a reminder, the IC50 is the concentration that inhibits the measured activity by half. High values mean a need for much substance, low ones inhibition by little substance.
